Measurements as given in patent US20260109731A1, “NE[…] USE THEREOF” (HUNAN MINGRUI PHARMACEUTICAL CO., LTD., priority 2023, published 2026).
Where “and” joins values, the source holds several entries; their conditions need not be identical. Equal values may be shown once.

Experiments:
[1] = In vitro phase I metabolic stability in male SD rat hepatic microsomes; format: in vitro ADME; conditions: male SD rat hepatic microsomes
Method: Phase I metabolic stability kit (purchased from HUIZHI HEYUAN BIOTECHNOLOGY (BEIJING) CO., LTD), with the following components of the product:
Positive substrate testosterone solution (10 mM): diluted with acetonitrile to prepare a 200 μM solution for later use; stop solution & internal standard (testosterone-D3): dissolved with acetonitrile to prepare a 5 ng/mL solution for later use.
• 1) all components of the kit were thawed in an ice bath and placed on ice for later use; • 2) an incubation system (taking 200 μL system as an example) was prepared:
• 3) 160 μL of pre-incubation solution B was added into the centrifuge tube containing 40 μL of pre-incubation solution A, uniform mixing was performed by pipetting three times, and the resulting mixture was immediately placed in a water bath at 37° C. for incubation and timing was started; • 4) at predetermined incubation time points (0, 5, 10, 15, 30, 45, 60 minutes), the incubation solution was quantitatively taken out, and 200 μL of stop solution (5 ng/mL testosterone-D3 in acetonitrile, pre-chilled at 4° C.) was added to terminate the reaction (stop solution volume: incubation system volume=1:1). Experimental samples were prepared in triplicate at each time point.
To verify the validity of the experiment, a positive control group was established concurrently in the whole experiment to evaluate whether the incubation system functioned properly, with the preparation method as follows: the compound to be tested was replaced with the positive substrate testosterone (200 μM in acetonitrile) from the phase I metabolic stability kit, and the other components of the incubation system and experimental method were the same as those of the experimental group.
The ratio of the chromatographic peak area of the compound to be tested to the chromatographic peak area of the testosterone-D3 (internal standard) was used as the calculated data. By taking the peak area ratio at time zero of the test compound as 100%, the remaining percentages were calculated by comparing the peak area ratio at each time point with the peak area ratio at time zero, and the natural logarithms of the remaining percentages of the substrate at each time point are then subjected to linear regression against the incubation times to obtain the slope k. Therefore, the in vitro metabolic half-life (T1/2) and intrinsic clearance (CLint) were calculated using the following formulas: […]

[2] = Pharmacokinetic analysis of tail vein administration in female rats
Method: (§1) • Female SD rats (body weight: 200 g to 220 g) were purchased from BEIJING HFK BIOSCIENCE CO., LTD.
60 female SD rats were divided into two groups (Aintravenous and Bintravenous), with 30 rats per group (5 rats per blood collection time point). The drugs Aintravenous and Bintravenous were administered via tail vein injection at 3 mg/kg each (about 1.2 mL of drug solution). Blood was collected from the orbital venous plexus at time points (5 min, 30 min, 1 h, 2 h, 4 h, and 8 h) after administration, respectively, anticoagulated with heparin, and centrifuged, and then the plasma was separated and stored at −80° C. for later testing. At 8 h after blood collection, the animals were sacrificed, and the brain and liver tissues were taken and stored at −80° C. for later testing.
(§2) 100 μL of plasma sample, 10 μL of internal standard solution (100 ng/mL testosterone D-3 solution), and 310 μL of acetonitrile were accurately measured, uniformly mixed by vortexing, and centrifuged (14000 rpm, 4° C.), and a resulting supernatant was taken and detected using UPLC-MS/MS (the analysis method was the same as that in pharmacokinetic analysis in mice).
(§3) About 100 mg of brain or liver tissue sample was taken, and accurately weighed. 100 μL of water and 400 μL acetonitrile were accurately added thereto, and a resulting mixture was subjected to homogenization. 100 μL of brain or liver tissue homogenate, 10 μL of internal standard solution (100 ng/mL testosterone D-3 solution), and 310 μL of acetonitrile were accurately measured, uniformly mixed by vortexing, and centrifuged (14000 rpm, 4° C.), and a resulting supernatant was taken and detected using UPLC-MS/MS (the analysis method was the same as that in pharmacokinetic analysis in mice).

[3] = Pharmacokinetic analysis of oral gavage administration in female rats
Method: as §1
60 female SD rats were divided into two groups (Aoral and Boral), with 30 rats per group (5 rats per blood collection time point). The drugs Aoral and Boral were administered via oral gavage administration at 12 mg/kg each (about 1.6 mL of drug solution). Blood was collected from the orbital venous plexus at each time point (5 min, 30 min, 1 h, 2 h, 4 h, and 8 h) after administration, respectively, anticoagulated with heparin, and centrifuged, and then the plasma was separated and stored at −80° C. for later testing. At 8 h after blood collection, the animals were sacrificed, and the brain and Liver tissues were taken and stored at −80° C. for later testing.
as §2, §3

[4] = Pharmacokinetic analysis of oral administration to male rats; format: in vivo; conditions: oral gavage 12 mg/kg; for Blood drug concentration: individual rats 1-7
Excerpt: Male SD rats (body weight: 230 g to 250 g) were purchased from BEIJING HFK BIOSCIENCE CO., LTD.

[5] = female, SD, rat, plasma, iv, 3 mg/kg

Which half-life ([1]; liver microsomes, NADPH system, 37° C., read-out: T1/2 (in vitro metabolic half-life)) does the source give for `CC(=O)[C@H]1CC[C@H]2[C@@H]3CC[C@H]4C[C@H](O[N+](=O)[O-])CC[C@]4(C)[C@H]3CC[C@]12C` [Compound 1] here?
The half-life was 1.56 h.

What about the microsomal CLint ([1]; liver microsomes, read-out: intrinsic clearance) of the same compound?
Its microsomal CLint is 14.8 µL/min/mg.

What about the “In vitro CLint” value ([1]; 37° C.) of the same compound?
Its value is 14.82 μL/min/mg protein.

What about the “k (slope of ln remaining percentage against incubation time)” value ([1]; 37° C.) of the same compound?
The value was −0.0074.

What about the “level of allopregnanolone in the liver after administration of compound 1” value ([2]; female SD rats, intravenous compound 1, 3 mg/kg, 8 h) of the same compound?
Its value is “undetectable”.

What about the concentration at 8 h ([2]; female, SD, rat, brain, intravenous, 3 mg/kg) of the same compound?
The concentration at 8 h was 209 ng/g.

What about the Kp at 8 h ([2]; female, SD, rat, brain/plasma, intravenous, 3 mg/kg) of the same compound?
Its Kp at 8 h is 6.68.

What about the concentration at 8 h ([2]; female, SD, rat, liver, iv, 3 mg/kg) of the same compound?
The concentration at 8 h was 193 ng/g.

What about the clearance [2, 5] of the same compound?
Its clearance is 87.8 mL/min/kg.

And the half-life [2, 5]?
Its half-life is 0.96 h.

What about the Oral bioavailability ([3]; female SD rats, oral gavage 12 mg/kg vs tail vein 3 mg/kg) of the same compound?
The Oral bioavailability was >65%.

And the clearance ([3]; female SD rats, oral gavage, 12 mg/kg, sesame oil solution)?
Its clearance is 9.67 mL/min/kg.

And the concentration at 8 h ([3]; female, SD, rat, brain, po, 12 mg/kg)?
The concentration at 8 h was 1640 ng/g.

What about the Kp at 8 h ([3]; female, SD, rat, brain/plasma, po, 12 mg/kg) of the same compound?
Its Kp at 8 h is 2.95.

What about the concentration at 8 h ([3]; female, SD, rat, liver, po, 12 mg/kg) of the same compound?
The concentration at 8 h was 3700 ng/g.

And the bioavailability ([3]; female, SD, rat, plasma, oral, 12 mg/kg)?
The bioavailability was > 65%.

And the Tmax ([3]; female, SD, rat, plasma, po, 12 mg/kg)?
The Tmax was > 8 h.

What about the Blood drug concentration ([4]; male SD rats, 0.5 h, 12 mg/kg) of the same compound?
The Blood drug concentration was 4.1 ng/mL and 5.7 ng/mL and 16.2 ng/mL and 8.7 ng/mL and 8.3 ng/mL and 8.1 ng/mL and 8.4 ng/mL.

What about the Blood drug concentration ([4]; male SD rats, 1 h, 12 mg/kg) of the same compound?
The Blood drug concentration was 14.1 ng/mL and 18.9 ng/mL and 35.9 ng/mL and 31.5 ng/mL and 22.3 ng/mL and 23.8 ng/mL and 50.6 ng/mL.

What about the Blood drug concentration ([4]; male SD rats, 2 h, 12 mg/kg) of the same compound?
Its Blood drug concentration is 38.2 ng/mL and 85.8 ng/mL and 132.2 ng/mL and 88.8 ng/mL and 111.4 ng/mL and 123 ng/mL and 251.1 ng/mL.

What about the Blood drug concentration ([4]; male SD rats, 3 h, 12 mg/kg) of the same compound?
Its Blood drug concentration is 71.9 ng/mL and 121.8 ng/mL and 288.6 ng/mL and 243.6 ng/mL and 103.9 ng/mL and 130.9 ng/mL and 616.7 ng/mL.

And the Blood drug concentration ([4]; male SD rats, 4 h, 12 mg/kg)?
Its Blood drug concentration is 95.1 ng/mL and 147 ng/mL and 279.6 ng/mL and 252.2 ng/mL and 270.9 ng/mL and 343.8 ng/mL and 318.5 ng/mL.

What about the Blood drug concentration ([4]; male SD rats, 5 h, 12 mg/kg) of the same compound?
Its Blood drug concentration is 250.4 ng/mL and 142.4 ng/mL and 252.4 ng/mL and 284.1 ng/mL and 262.5 ng/mL and 410.7 ng/mL and 582.4 ng/mL.

What about the Blood drug concentration ([4]; male SD rats, 6 h, 12 mg/kg) of the same compound?
The Blood drug concentration was 259.8 ng/mL and 263.9 ng/mL and 161.2 ng/mL and 260.7 ng/mL and 287.5 ng/mL and 409.8 ng/mL and 687.1 ng/mL.

What about the Blood drug concentration ([4]; male SD rats, 8 h, 12 mg/kg) of the same compound?
Its Blood drug concentration is 121.7 ng/mL and 276.1 ng/mL and 383.6 ng/mL and 523.1 ng/mL and 496.4 ng/mL and 78.9 ng/mL and 556.5 ng/mL.

And the Blood drug concentration ([4]; male SD rats, 10 h, 12 mg/kg)?
The Blood drug concentration was 167.3 ng/mL and 1144.3 ng/mL and 424.6 ng/mL and 914.9 ng/mL and 382.7 ng/mL and 196.1 ng/mL and 396.3 ng/mL.

What about the Blood drug concentration ([4]; male SD rats, 12 h, 12 mg/kg) of the same compound?
Its Blood drug concentration is 513.5 ng/mL and 873.9 ng/mL and 343.7 ng/mL and 730.7 ng/mL and 234.9 ng/mL and 303.8 ng/mL and 285.4 ng/mL.

And the Blood drug concentration ([4]; male SD rats, 18 h, 12 mg/kg)?
The Blood drug concentration was 68.5 ng/mL and 110.5 ng/mL and 196.7 ng/mL and 97 ng/mL and 83.3 ng/mL and 73.4 ng/mL and 134.5 ng/mL.

What about the Blood drug concentration ([4]; male SD rats, 24 h, 12 mg/kg) of the same compound?
Its Blood drug concentration is 13.7 ng/mL and 68.5 ng/mL and 61.6 ng/mL and 20.7 ng/mL and 27.6 ng/mL and 13.8 ng/mL and 133.4 ng/mL.

And the Tmax ([4]; male SD rats, 12 mg/kg)?
Its Tmax is 9.7 h.

And the concentration at 0.5 h ([4]; male, SD, rat, plasma, po, 12 mg/kg, 0.5 h, mean of 7 rats, read-out: Blood drug concentration, Mean value)?
Its concentration at 0.5 h is 8.5 ng/mL.

What about the concentration at 1 h ([4]; male, SD, rat, plasma, po, 12 mg/kg, 1 h, mean of 7 rats, read-out: Blood drug concentration, Mean value) of the same compound?
Its concentration at 1 h is 28.2 ng/mL.

And the concentration at 2 h ([4]; male, SD, rat, plasma, po, 12 mg/kg, 2 h, mean of 7 rats, read-out: Blood drug concentration, Mean value)?
The concentration at 2 h was 119 ng/mL.

And the concentration at 3 h ([4]; male, SD, rat, plasma, po, 12 mg/kg, 3 h, mean of 7 rats, read-out: Blood drug concentration, Mean value)?
The concentration at 3 h was 225 ng/mL.

And the concentration at 4 h ([4]; male, SD, rat, plasma, po, 12 mg/kg, 4 h, mean of 7 rats, read-out: Blood drug concentration, Mean value)?
Its concentration at 4 h is 244 ng/mL.

And the concentration at 5 h ([4]; male, SD, rat, plasma, po, 12 mg/kg, 5 h, mean of 7 rats, read-out: Blood drug concentration, Mean value)?
Its concentration at 5 h is 312 ng/mL.

And the concentration at 6 h ([4]; male, SD, rat, plasma, po, 12 mg/kg, 6 h, mean of 7 rats, read-out: Blood drug concentration, Mean value)?
The concentration at 6 h was 333 ng/mL.

And the concentration at 8 h ([4]; male, SD, rat, plasma, po, 12 mg/kg, 8 h, mean of 7 rats, read-out: Blood drug concentration, Mean value)?
Its concentration at 8 h is 348 ng/mL.

And the concentration at 10 h ([4]; male, SD, rat, plasma, po, 12 mg/kg, 10 h, mean of 7 rats, read-out: Blood drug concentration, Mean value)?
Its concentration at 10 h is 518 ng/mL.

And the concentration at 12 h ([4]; male, SD, rat, plasma, po, 12 mg/kg, 12 h, mean of 7 rats, read-out: Blood drug concentration, Mean value)?
Its concentration at 12 h is 469 ng/mL.

And the concentration at 18 h ([4]; male, SD, rat, plasma, po, 12 mg/kg, 18 h, mean of 7 rats, read-out: Blood drug concentration, Mean value)?
The concentration at 18 h was 109 ng/mL.

What about the concentration at 24 h ([4]; male, SD, rat, plasma, po, 12 mg/kg, 24 h, mean of 7 rats, read-out: Blood drug concentration, Mean value) of the same compound?
Its concentration at 24 h is 48.5 ng/mL.

What about the Tmax ([4]; male, SD, rat, plasma, po, 12 mg/kg, read-out: Tmax) of the same compound?
The Tmax was ~10 h.

What about the AUC(0-inf) ([4]; rat, plasma, male SD rats) of the same compound?
Its AUC(0-inf) is 6220 ng·h/mL.

And the AUC(0-t) ([4]; rat, plasma, male SD rats)?
Its AUC(0-t) is 5830 ng·h/mL.

And the Cmax ([4]; rat, plasma, male SD rats)?
Its Cmax is 649 ng/mL.

What about the half-life ([4]; rat, plasma, male SD rats) of the same compound?
Its half-life is 4.5 h.
